Experimental data as given in patent US6365350B1, “Method of DNA sequencing” (The Institute of Physical and Chemical Research, priority 1997, dated 2002).
Entries after “also recorded” stand apart in the source; their conditions may differ.

What was measured:
[1] = biological target: T7 RNA polymerase (Escherichia phage T7, UniProt P00573); assay: Incorporation rate of 3′-dNTP measured with radioactive [α-32P]3′-dNTPs; assay type: biochemical
Description: Further, incorporation rate of 3′-deoxyribonucleotides is different depending on the kind of RNA polymerase, and this should be considered for the selection of the combination. The incorporation rate of 3′-dNTP by T7 RNA polymerase was measured by using radioactive [α-^32p]3′-dNTPs.

[2] = test system: 3′-dATP, 3′-dGTP, 3′-dCTP, 3′-dUTP and derivatives thereof; settings: for ability for incorporating 3′-dATP, 3′-dGTP, 3′-dCTP, 3′-dUTP and derivatives thereof: compared with wild type T7 RNA polymerase
Description: The T7 RNA polymerases introduced with mutations were purified, and their abilities of promoter sequence specific RNA synthesis and incorporation of ribonucleoside 5′-triphosphates including ATP, GTP, CTP, UTP and derivatives thereof, as well as 3′-DATP, 3′-dGTP, 3′-dCTP, 3′-dUTP and derivatives thereof were compared with those of wild type T7 RNA polymerase.
For two kinds of reaction mixture (with or without 3′-DATP, final concentration was 100 μM), the reaction was performed at 37° C. for 60 minutes. The whole reaction mixture was spotted on DE81 paper (Whatman), washed three times with phosphate buffer, and dried. The DE81 paper was placed into a scintillation vial, and radioactivity was measured using a scintillation counter (Beckman) for each reaction. Degree of inhibition of the [α-^32P]UTP incorporation was calculated by comparing the values obtained with and without 3′-dATP based on the measured radioactivity.

[3] = test system: 3′-dATP; assay: Inhibition of [α-32P]UTP incorporation by 3′-dATP in transcription reaction (relative activity for 3′-dATP); assay type: biochemical; settings: relative value of inhibition degree of [α-32P]UTP incorporation by 100 μM 3′-dATP; wild type normalized to 1.000; 37° C., 60 minutes
[4] = test system: DNA containing T7 promoter; settings: in vitro, compared with wild type T7 RNA polymerase
Description: Subsequent steps for purification of enzyme should be performed at a temperature lower than room temperature, preferably 0-5° C. unless otherwise indicated. The E. coli cells were washed with 10 times relative to the cell weight of a washing buffer (20 mM Tris-HCl, pH 8.1, 130 mM NaCl, 2 mM EDTANa2 at 25° C.), centrifuged again (5,000×g, 4° C., 10 minutes), suspended in 10 times in volume of a sonication buffer [50 mM Tris-HCl, pH 8.1, 100 mM NaCl, 0.1 mM EDTANa2, 5 mM dithiothreitol (DTT), 0.1 mM benzamidine, 30 μg/ml phenylmethylsulfonyl fluoride (PMSF), 10 μg/ml bacitracin], and sonicated by using Sonifier 450 (Branson) at 80W for more than 15 minutes to destroy the cells and reduce the viscosity of the cells. Then, the cell suspension is centrifuged at 12,000×g and 4° C. for ten minutes to remove the cell debris. 10% streptomycin sulfate was slowly added dropwise to the resulting supernatant to a final concentration of 2.0% with stirring, and stirring was further continued for 30 minutes. The supernatant was centrifuged at 12,000×g and 4° C. for ten minutes to remove precipitates, and slowly added with ammonium sulfate powder with stirring to form precipitates. In this case, precipitates were first collected by 30% saturation of ammonium sulfate (30% ammonium sulfate precipitation), and the resulting supernatant was further added with ammonium sulfate to 60% saturation with stirring to form precipitates again (30-60% ammonium sulfate precipitation). The supernatant was added again with ammonium sulfate powder to 90% ammonium sulfate saturation, and stirred at 4° C. for 1 hour, and the precipitates were collected by centrifugation. […] The.30′60% ammonium sulfate fraction was suspended in a small amount of column buffer (20 mM KPO4, pH 7.7, 100 mM NaCl, 1 mM DTT, 30 μg/ml PMSF), and desalted by dialysis against 500 ml of the same buffer for 16hours. The dialysate was applied on a heparin-Sepharose column of 5 ml volume (Pharmacia Biotech). Subsequently, the column was washed with the same buffer until any material absorbing ultraviolet ray at 280 nm disappeared, and eluted with a linear gradient of 0.1 M to 0.64 M NaCl in the same buffer of about 40 times volume of the column volume. The eluent was collected in test tubes as fractions of a suitable volume, and immediately subjected to SDS-acrylamide gel electrophoresis for protein analysis to identify fractions containing proteins around a molecular weight considered to be of the objective T7 RNA polymerase. […] The fractions containing the protein were collected, and desalted by dialysis against about 1 liter of the column buffer (20 mM KPO4, pH 7.7, 100 mM NaCl, 1 mM DTT, 30 μg/ml PMSF) for 16 hours. The fractions desalted by dialysis were applied to a Q-Sepharose column (Pharmacia Biotech) of 5 ml volume that preliminarily equilibrated with the same buffer, and the column was washed with the same buffer until any material absorbing ultraviolet ray at 280 nm disappeared, and eluted with a linear gradient of 0.1 M to 0.64 M NaCl in the same buffer of about 40 times volume of the column volume. The eluent was collected in test tubes as fractions of a suitable volume, and immediately subjected to SDS-acrylamide gel electrophoresis for protein analysis to identify fractions containing proteins around a molecular weight considered to be of the objective T7 RNA polymerase. […] The fractions containing the protein were collected, dialyzed against 500 ml of storage buffer (50% glycerol, 20 mM KPO4, pH 7.7, 100 mM NaCl, 1 mM DTT, 30 μg/ml PMSF) for 16 hours, and stored at −20° C. until use. In vitro RNA synthesis activity and activity of the contaminated ribonuclease of this sample were examined.

[5] = test system: XR-3′dCTP(n=1); assay: In vitro transcription with dye terminator XR-3′dCTP(n=1), sequence ladder (Example 1); assay type: biochemical; settings: for incorporation efficiency for 3′-dCTP derivatives: peak intensities of sequence ladder vs wild type, FIGS. 30 and 31
Description: In vitro transcription reaction was performed by, for example, a partially modified version of the method of Melton, D. A., [Nucleic Acids Res., 12:7035-7056 (1984)].

[6] = test system: plasmid vector pBluescriptKS(+) having T7 promoter; assay: Sequencing reaction by the dye terminator method, n=1 terminators (Example 2); settings: four dye terminators n=1, 25 units polymerase, 37° C., 1 hour
Description: Sequencing reaction by the dye terminator method was performed utilizing the purified mutant T7 RNA polymerases F644Y and L665P/F667Y, and the wild type T7 RNA polymerase as follows for comparison.
More specifically, the reaction was performed in a total reaction volume of 10 μl containing a plasmid vector pBluescriptKS(+) having T7 promoter linealized by the reaction with a restriction endonuclease PvuII or ScaI as a template, 250 μM of R6G-3′-dATP(n=1), 25 μM of R110-3′-dGTP(n=1), 150 μM of XR-3′-dCTP(n=1), 50 μM of TMR-3′-dUTP(n=1), which were the dye terminators synthesized in the above Synthesis Examples 49, 52, 46 and 43 respectively, as derivatives of 3′-dNTP, 500 μM of GTP and UTP, 250 μM of ATP and CTP, 8 mM of MgCl2, 2 mM of spermidine-(HCl)3, 5 mM of DTT, 40 mM of Tris/HCl pH 8.0 (BRL, Gibco) and 25 units of wild type T7 RNA polymerase (BRL, Gibco or Nippon Gene) or the mutant T7 RNA polymerase F644Y at 37° C. for 1 hour. Then, to remove the unreacted dye terminators remained in the reaction product, the transcription product was purified by gel filtration using a Sephadex G-50 column (Pharmacia Biotech), and the purification product was evaporated to dryness using a centrifugal evaporator.
The dried reaction product was dissolved in 6 μl of formamide/EDTA/Blue dextran loading buffer according to the instruction manual Ver.1.0 of ABI PRISM 377 DNA Sequencing System available from Perkin-Elmer Japan, and 2 μl of the solution was analyzed by ABI 377 DNA Sequencer and an analysis program using denatured gel for sequencing analysis which contained 6 M urea/4% Long Ranger™ acrylamide solution (FMC).

[7] = biological target: T1, T7 RNA polymerase (Gibco BRL) (Escherichia phage T7, UniProt P00573); assay: Examination of 3′-deoxyterminators, termination pattern (Reference Example 8); assay type: biochemical; settings: terminator 10 μM, 37° C., 30 minutes, FIGS. 42A and 42B
T1 construct: purchased Gibco BRL
T1 sequence (P00573 whole entry): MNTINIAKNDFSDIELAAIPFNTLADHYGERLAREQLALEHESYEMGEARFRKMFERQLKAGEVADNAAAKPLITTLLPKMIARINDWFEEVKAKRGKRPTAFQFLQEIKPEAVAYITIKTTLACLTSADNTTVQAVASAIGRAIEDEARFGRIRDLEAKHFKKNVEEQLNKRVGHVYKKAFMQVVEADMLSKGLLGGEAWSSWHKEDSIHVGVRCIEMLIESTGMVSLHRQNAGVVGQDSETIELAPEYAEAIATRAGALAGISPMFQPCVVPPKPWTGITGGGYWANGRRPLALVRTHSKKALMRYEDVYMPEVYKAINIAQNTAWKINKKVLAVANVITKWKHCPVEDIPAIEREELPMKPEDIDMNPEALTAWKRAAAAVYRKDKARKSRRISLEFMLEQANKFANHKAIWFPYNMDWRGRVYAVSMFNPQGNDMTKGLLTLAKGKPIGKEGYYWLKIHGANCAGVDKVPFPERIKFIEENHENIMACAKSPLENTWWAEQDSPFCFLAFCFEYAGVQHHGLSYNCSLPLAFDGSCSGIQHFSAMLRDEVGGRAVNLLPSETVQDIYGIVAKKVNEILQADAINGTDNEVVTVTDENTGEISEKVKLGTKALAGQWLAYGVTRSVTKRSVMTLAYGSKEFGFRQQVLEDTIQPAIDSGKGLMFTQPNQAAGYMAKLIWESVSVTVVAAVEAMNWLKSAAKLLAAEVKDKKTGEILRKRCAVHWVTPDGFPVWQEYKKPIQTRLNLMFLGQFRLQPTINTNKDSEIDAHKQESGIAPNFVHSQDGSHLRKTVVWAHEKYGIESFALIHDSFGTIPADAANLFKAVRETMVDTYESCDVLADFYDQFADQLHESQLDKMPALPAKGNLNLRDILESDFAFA
Description: PCR was performed by using the following materials (96° C. for one minute, 55° C. for 30 seconds, and 72° C. for one minute for one cycle, and 96° C. for 30 seconds, 55° C. for 30 seconds, 72° C. for one minute for 24 cycles), and the resulting PCR product (amplified DNA fragment of human thyroid stimulating hormone (TSH) β-subunit) was used as a template DNA.
Each material in a predetermined amount was added to a sample tube, filled up to a total volume of 10 μl with EXTaq buffer (Takara Shuzo), and used as a PCR mixture.
The template DNA (10 ng) was added to a sample tube containing each of the terminators, guanosine-5′-triphosphate (rGTP), uridine-5′-triphosphate (rUTP), adenosine-5′-triphosphate (rATP), and cytidine-5′-triphosphate (rCTP), MgCl2, spermidine-(HCl)3, dithiothreitol (DTT), Tris/HCl (pH 7.5), yeast inorganic pyrophosphatase (PPase) and T7 RNA polymerase in such amounts as their final concentrations should be as follows, filled up to a total amount of 10 μl with distilled water, and used as a sample.
After 30 minutes incubation of the sample at 37° C., the terminators not incorporated were removed by gel filtration using a Sephadex G25 column (Pharmacia), and the precipitates were collected by centrifugal separation. […] After cooling, 2 μl of the solution was applied to 4% sequencing gel, and electrophoresed on ABI377 fluorescence automatic sequencer (ABI). […]

[8] = 150 μM XR-3′dCTP(n=1), 25 units polymerase, 37° C., 1 hour

Chain of T7 RNA polymerase (P00573 whole entry): as above

Molecule	ability for incorporating 3′-dATP, 3′-dGTP, 3′-dCTP, 3′-dUTP and derivatives thereof [2]	Relative activity of RNA polymerase for 3′-dATP [3]	RNA synthesis activity [4]	also measured
Nc1ncnc2c1ncn2[C@@H]1O[C@H](COP(=O)(O)OP(=O)(O)OP(=O)(O)O)C[C@H]1O [3′-dATP]				order of incorporation rate of 3′-dNTP by T7 RNA polymerase [1]: 3′-dGTP>3′-dATP, 3′-dUTP>3′-dCTP
Nc1ccn([C@@H]2O[C@H](COP(=O)(O)OP(=O)(O)OP(=O)(O)O)C[C@H]2O)c(=O)n1 [3′-dCTP]				order of incorporation rate of 3′-dNTP by T7 RNA polymerase [1]: 3′-dGTP>3′-dATP, 3′-dUTP>3′-dCTP
Nc1nc2c(ncn2[C@@H]2O[C@H](COP(=O)(O)OP(=O)(O)OP(=O)(O)O)C[C@H]2O)c(=O)[nH]1 [3′-dGTP]				order of incorporation rate of 3′-dNTP by T7 RNA polymerase [1]: 3′-dGTP>3′-dATP, 3′-dUTP>3′-dCTP
O=c1ccn([C@@H]2O[C@H](COP(=O)(O)OP(=O)(O)OP(=O)(O)O)C[C@H]2O)c(=O)[nH]1 [3′-dUTP]				order of incorporation rate of 3′-dNTP by T7 RNA polymerase [1]: 3′-dGTP>3′-dATP, 3′-dUTP>3′-dCTP
F644Y/L665P: mutant T7 RNA polymerase with mutations F644Y and L665P	marked improvement; also recorded: comparable to that of the F644Y mutant	5.130	maintained sufficient RNA synthesis activity	
F644Y: mutant T7 RNA polymerase in which F (phenylalanine) residue 644 was replaced with Y (tyrosine)	marked improvement; also recorded: markedly improved ability	5.130	maintained sufficient RNA synthesis activity	bias of incorporation observed in the wild type [2]: markedly reduced; sequence ladder length compared with that afforded by the wild type T7 RNA polymerase [5, 8]: 3 times; transcription product length confirmed [5, 8]: about 700 bases; incorporation efficiency for 3′-dCTP derivatives [5]: improved the incorporation efficiency; peak intensity in comparison with the wild type T7 RNA polymerase [6]: higher peak intensity with less fluctuation; sequence reading [6]: sequence reading was possible
F646Y: mutant T7 RNA polymerase in which F646 was replaced with Y	no improvement	0.459	maintained RNA synthesis activity	
F733Y: mutant T7 RNA polymerase in which F733 was replaced with Y	slightly improved ability	1.075	slightly decreased RNA synthesis activity	
F782Y: mutant T7 RNA polymerase in which F782 was replaced with Y	slightly improved ability	1.173	maintained RNA synthesis activity	
L665P/F667Y: mutant T7 RNA polymerase with mutations L665P and F667Y; labelled F667Y in FIGS. 29, 31, 32	marked improvement; also recorded: markedly improved ability	4.711	maintained sufficient RNA synthesis activity	bias of incorporation observed in the wild type [2]: markedly reduced; incorporation efficiency for 3′-dCTP derivatives [5]: improved the incorporation efficiency; peak intensity in comparison with the wild type T7 RNA polymerase [6]: higher peak intensity with less fluctuation; sequence reading [6]: sequence reading was possible
TMR-labeled 3′-deoxyuridine-5′-triphosphate [TMR-3′dUTP(n4)]				termination pattern / incorporation efficiency [7]: difference is not recognized
TMR-labeled 3′-deoxyuridine-5′-triphosphate [TMR-Allyl-3′dUTP(n4)]				termination pattern / incorporation efficiency [7]: incorporated as efficiently as TMR-3′dUTP(n4)
Wild type: wild type T7 RNA polymerase, 883 amino acid residues [reference compound]		1.000	sufficient RNA synthesis activity	sequence reading [6]: almost impossible; also recorded: sequencing was not performed correctly
Y639F: Y639F mutant of T7 RNA polymerase, at a location corresponding to Y526 of T7 DNA polymerase, described in the literature [reference compound]	no improvement	0.930	maintained RNA synthesis activity	
